In the test the test system is PAR-2. As to the kind of experiment: Inhibition of PAR-2 activating peptide (AP2) calcium signaling in cells pretreated with antagonist. It is filed as cell-based, human. On the set-up: key to PAR-2 AP2 Signaling Treated/Control (T/C) / PAR-2 AP2 Signaling Treated/Control: AUC of calcium mobilization, treated ÷ control wells. To be noted: mimetic antagonists; AUC of calcium mobilization treated/control; initially screened at 1 mM compound. The method, then:
In order to assess the potential of peptides and molecules selected above to block PAR-2 signaling, cells were pretreated with potential antagonist peptides for a predetermined amount of time and were subsequently treated with various GPCR agonists. Confluent Lewis lung carcinoma (LLC) cells were loaded for 30-60 minutes with the fluorescent dye Fluo-4. Final concentration 4 uM Fluo-4, 0.02% pluronic acid in physiological buffer. Cells were then washed with assay buffer, (HBSS containing 1 mM CaCl2, 1 mM MgSO4, and 2.5 mM probenecid). Cells were stimulated with various doses of PAR-2 activating peptide, PAR-1 activating peptide or ATP. Fluorescence was monitored using a Wallac 1470 fluorescent plate reader. (See Al-ani et. al Journal of Pharmacology and Experimental Therapeutics 290:2, 753-760). Additional compound screening was performed using U87-MG human glioma cells. In this assay cells were labeled with FLIPR Calcium 3 dye (Component A), which was dissolved in 10 mls of Assay Buffer without Probenecid. Loading buffer was prepared by diluting Component A with an additional 90 mls of Assay Buffer without Probenecid, giving a total volume of a 100 ml. For plate loading, 11 mls of FLIPR Calcium 3 dye (Component A) is placed into a 15 ml conical tube+110 μl of 250 mM Probenecid, at a final in-well working volume of 2.5 mM. Finally, 50 μl of Calcium 3 dye was added wells containing 100 μl media, and incubated 1 hr, 37° C., 5% CO2. Calcium signaling was then measured using a Flexstation II (Molecular Devices) following manufacturer's instructions.
Potential antagonist compounds were initially screened at 1 mM compound concentration. Those compounds with activity were then subjected to additional confirmatory testing. Activity is reported as treated/controlled (T/C) where the area under the curve (AUC) of calcium mobilization plots in treated wells is divided by the AUC of calcium mobilization plots in control wells to generate a measure of inhibition.
Turning to `NCCCCCC(=O)N1CC(NC(=O)CC2CCCCC2)C1` [ENMD-1514, 2-cyclohexylacetamid-N-(6-amino-1-hexanoylazetidin-3-yl)], the “PAR-2 AP2 Signaling Treated/Control” value is recorded as 0.53. The result for `CC(C)CC(=O)N1CC(NC(=O)CCCCCN)C1` [ENMD-1515, N-[1-(3-methylbutanoyl)azetidin-3-yl]-6-aminohexanamide] reads 0.65. As for `CC(C)CC(=O)NC1CN(C(=O)CCCCCN)C1` [ENMD-1516, N-(6-amino-1-hexanoylazetidin3-yl)-3-methylbutanamide], the “PAR-2 AP2 Signaling Treated/Control” value is 0.87. Take `CC(C)CCn1c(=O)n(CCCCCCN)c2ccccc21` [ENMD-1517, 1-(6-aminohexyl)-3-[(3-methyl)butyl]benzimidazol(2)-one]: the “PAR-2 AP2 Signaling Treated/Control” value is 0.52. As for `NCCCCCCn1c(=O)n(CCC2CCCCC2)c2ccccc21` [ENMD-1518, 1-(6-aminohexyl)-3-[(2-cyclohexyl)ethyl]benzimidazol-(2)-one], the “PAR-2 AP2 Signaling Treated/Control” value is 0.58. Regarding `CC(C)CCc1cn(CCCCCCN)nn1` [ENMD-1519, 1-(6-aminohexyl)-4-(3-methylbutyl)-1,2,3-triazole], the “PAR-2 AP2 Signaling Treated/Control” value was found to be 0.65. Consider `NCCCCCCn1cc(CCC2CCCCC2)nn1` [ENMD-1520, 1-(6-aminohexyl)-4-(2-cyclohexylethyl)-1,2,3-triazole], for which the “PAR-2 AP2 Signaling Treated/Control” value is on record as 0.36. For the compound `NCCCCCCNC(=O)C1CN(C(=O)CC2CCCCC2)CCO1` (stereo not drawn) [ENMD-1521, 4-(2-Cyclohexyl-acetyl)-morpholine-2-carboxylic acid (6-amino-hexyl)-amide], the “PAR-2 AP2 Signaling Treated/Control” value came out at 1.01. The figure for `CC(C)CC(=O)N1CCOC(C(=O)NCCCCCCN)C1` (stereo not drawn) [ENMD-1522, 4-(3-Methyl-butyryl)-morpholine-2-carboxylic acid (6-amino-hexyl)-amide] is 1.00; for `NCCCCCC(=O)N1CCOC(C(=O)NCC2CCCCC2)C1` (stereo not drawn) [ENMD-1523, 4-(6-Amino-hexanoyl)-morpholine-2-carboxylic acid cyclohexylmethyl-amide] it is 0.54; for `CC(C)CNC(=O)C1CN(C(=O)CCCCCN)CCO1` (stereo not drawn) [ENMD-1524, 4-(6-Amino-hexanoyl)-morpholine-2-carboxylic acid isobutyl-amide] it is 0.73. The figure for `CC(C)CNc1nc2ccc(C(=O)NCCCCCCN)cc2[nH]1` [ENMD-1525, 2-Isobutylamino-3H-benzoimidazole-5-carboxylic acid (6-amino-hexyl)-amide] is 0.52. Regarding `NCCCCCCNC(=O)c1ccc2nc(NCC3CCCCC3)[nH]c2c1` [ENMD-1526, 2-(Cyclohexylmethyl-amino)-3H-benzoimidazole-5-carboxylic acid (6-amino-hexyl)-amide], the “PAR-2 AP2 Signaling Treated/Control” value is 0.64. Turning to `CC(C)CNC(=O)c1ccc(-c2ccc(NC(=O)CCCCCN)cc2)cc1` [ENMD-1527, 4′-(6-amino-hexanoylamino)-biphenyl-4-carboxylic acid isobutyl-amide], the “PAR-2 AP2 Signaling Treated/Control” value is given as 0.64. For the compound `CC(C)CNC(=O)c1ccc(-c2ccc(NC(=O)CCCCCN(C)C)cc2)cc1` [ENMD-1529, 4′-(6-Dimethylamino-hexanoylamino)-biphenyl-4-carboxylic acid isobutyl-amide], the “PAR-2 AP2 Signaling Treated/Control” value is 0.35. On to `CC(C)CNC(=O)c1cc(NC(=O)CCCCCN)[nH]n1` [ENMD-1533, 5-(6-Amino-hexanoylamino)-1H-pyrazole-3-carboxylic acid isobutyl-amide], for which the “PAR-2 AP2 Signaling Treated/Control” value was 0.68.

For the compound `NCCCCCC(=O)Nc1cc(C(=O)NCC2CCCCC2)n[nH]1` [ENMD-1534, 5-(6-amino-hexanoylamino)-1H-pyrazole-3-carboxylic acid cyclohexylmethyl-amide], the “PAR-2 AP2 Signaling Treated/Control” value is recorded as 0.44.

Consider `O=C(Cc1cn(CCCCN2C(=O)c3ccccc3C2=O)cn1)NC1CCCCC1` [ENMD-1535, N-cyclohexyl-2-(1-(4-(1,3-dioxoisoindolin-2-yl)butyl)-1H-imidazol-4-yl)acetamide], for which the “PAR-2 AP2 Signaling Treated/Control” value is given as 0.46. The figure for `CC(C)CNC(=O)[C@H]1CC[C@@H](NC(=O)CCCCCN)C1` [ENMD-1536, N-isobutyl-3S-(6-aminohexanamido)-cyclopentane-1R-carboxamide] is 0.42. The result for `CC(C)Cn1cccc1C(=O)NCCCCCCN` [ENMD-1537, N-(6-aminohexyl)-1-(2-methylpropyl)-2-pyrrolecarboxamide] reads 0.91; that for `NCCCCNC(=O)c1ccc(NCC2CCCCC2)nc1` [ENMD-1538], 0.48.

Consider `CC(C)CCN1C(C(=O)NCCCCCCN)CCS1(=O)=O` (stereo not drawn) [ENMD-1539, N-(isoamyl)isothiasolidine-1,1-dioxide-3-carboxylic acid-6-aminohexylamide], for which the “PAR-2 AP2 Signaling Treated/Control” value is 0.25. Consider `NCCCCCCNC(=O)c1cccn1CC1CCCCC1` [ENMD-1540, N-(6-aminohexyl)-1-(2-cyclohexylmethyl)-2-pyrrolecarboxamide], for which the “PAR-2 AP2 Signaling Treated/Control” value worked out at 0.05.

`CC(C)CNc1ccc(C(=O)NCCCCN)cn1` [ENMD-1541]: the “PAR-2 AP2 Signaling Treated/Control” value is listed as 0.65.

In the case of `NCCCCNc1ccc(C(=O)NCC2CCCCC2)cn1` [ENMD-1543], the “PAR-2 AP2 Signaling Treated/Control” value is 0.55. On to `NCCCCCCN1C(C(=O)NCCC2CCCCC2)CCS1(=O)=O` (stereo not drawn) [ENMD-1545, N-(6-aminohexyl)isothiazolidine-1,1-dioxide-3-carboxylic acid (2-cyclohexyl)ethylamide], for which the “PAR-2 AP2 Signaling Treated/Control” value was 0.35. The result for `CC(C)CCNC(=O)C1CCS(=O)(=O)N1CCCCCCN` (stereo not drawn) [ENMD-1546, N-(6-aminohexyl)isothiazolidine-1,1-dioxide-3-carboxylic acid isoamylamide] reads 0.97. On to `NCCCCCCNC(=O)C1CCS(=O)(=O)N1CCC1CCCCC1` (stereo not drawn) [ENMD-1547, N-(2-cyclohexyl)ethylisothiasolidine-1,1-dioxide-3-carboxylic acid-6-aminohexylamide], for which the “PAR-2 AP2 Signaling Treated/Control” value is listed as 0.24. On to `CC(C)CC(=O)Nc1nc(CC(=O)NCCCCCN)cs1` [ENMD-1549, N-{4-[(5-Amino-pentylcarbamoyl)-methyl]-thiazol-2-yl}-3-methyl-butyramide], for which the “PAR-2 AP2 Signaling Treated/Control” value is 0.26. In the case of `CC(C)CC(=O)Nc1cc(C(=O)NCCCCCCN)n[nH]1` [ENMD-1550, 5-(3-methyl-butyrylamino)-1H-pyrazole-3-carboxylic acid (6-amino-hexyl)-amide], the “PAR-2 AP2 Signaling Treated/Control” value came to 0.63.

In the case of `NCCCCCCNC(=O)c1cc(NC(=O)CC2CCCCC2)[nH]n1` [ENMD-1551, 5-(2-cyclohexyl-acetylamino)-1H-pyrazole-3-carboxylic acid (6-amino-hexyl)-amide], the “PAR-2 AP2 Signaling Treated/Control” value was 0.66. The figure for `CC(C)CCc1ccc(C(=O)NCCCCN)cc1` [ENMD-1552, N-(4-aminobutyl)-4-isopentyl-benzamide] is 0.10; for `NCCCCCCNc1nc2ccc(C(=O)NCC3CCCCC3)cc2[nH]1` [ENMD-1553, 2-(6-Amino-hexylamino)-3H-benzoimidazole-5-carboxylic acid cyclohexylmethyl-amide] it is 0.81. Take `CC(C)CNC(=O)Cc1csc(NC(=O)CCCCCN)n1` [ENMD-1554, 6-amino-hexanoic acid [4-(isobutylcarbamoyl-methyl)-thiazol-2-yl]-amide]: the “PAR-2 AP2 Signaling Treated/Control” value was determined as 0.44. Regarding `CC(C)CNC(=O)c1cc(CNC(=O)CCCCN)on1` [ENMD-1555, 5-[(5-amino-pentanoylamino)-methyl]-isoxazole-3-carboxylic acid isobutyl-amide], the “PAR-2 AP2 Signaling Treated/Control” value was 0.86. The result for `CC(C)CC(=O)NCc1cc(C(=O)NCCCCCCN)no1` [ENMD-1556, 5-[(3-methyl-butyrylamino)-methyl]-isoxazole-3-carboxylic acid (6-amino-hexyl)-amide] reads 0.57; that for `NCCCCCCNC(=O)c1cc(CNC(=O)CC2CCCCC2)on1` [ENMD-1557, 5-[(2-Cyclohexyl-acetylamino)-methyl]-isoxazole-3-carboxylic acid (6-amino-hexyl)-amide], 0.52. Turning to `NCCCCC(=O)NCc1cc(C(=O)NCC2CCCCC2)no1` [ENMD-1558, 5-[(5-amino-pentanoylamino)-methyl]-isoxazole-3-carboxylic acid cyclohexylmethyl-amide], the “PAR-2 AP2 Signaling Treated/Control” value is on record as 0.60.

Turning to `NCCCCCNC(=O)Cc1csc(NC(=O)CC2CCCCC2)n1` [ENMD-1559, N-(5-amino-pentyl)-2-[2-(2-cyclohexyl-acetyl-amino)-thiazol-4-yl]-acetamide], the “PAR-2 AP2 Signaling Treated/Control” value worked out at 0.52.

The values above are taken from patent publication US20060063930A1, “Compositions and methods comprising proteinase activated receptor antagonists” (priority 2004, published 2006).
